The text below walks through data of paper PMC3896228, “Physalin H from Solanum nigrum as an Hh signaling inhibitor blocks GLI1–DNA-complex formation” (Beilstein Journal of Organic Chemistry, 2014).

SMILES strings stand for the structures. Like-named read-outs stand apart in the source and are kept apart here.

Data set [1] deals with GLI1 transcriptional activity. As to conditions: cited from earlier work.
For the next data set, the system named is DU145. Kind of data set: Cytotoxicity test against DU145. It is filed as cell-based. An excerpt:
(§1) […]. […] […]. […] […].

For data set [2], the system named is assay cells (HaCaT cells expressing exogenous GLI1). The data set is described as follows: Cytotoxicity against reporter assay cells (cell viability). An excerpt: (§2) We evaluated the Hh inhibitory activity of the isolated compounds by using a previously described method. […] In addition we always checked the cytotoxicity of the compounds against the assay cells, because a decrease in the number of living cells also correlates with a reduced luciferase activity. […] Further, we examined the cytotoxicity against cancer cells, human pancreatic (PANC1) and prostate (DU145) cancer cell lines, in which Hh signaling is aberrantly activated (Table 1).
(§3) The NMR measurements were carried out with JEOL ECP400 and ECP600 spectrometers in deuterated solvents and the residual proton chemical shift was taken as an internal standard. MS data were obtained with a JEOL JMS-T100LP (ESI). IR spectra were measured by using the ATR (attenuated total reflection) method on a Jasco FT-IR 230 spectrophotometer. […] The procedures for the GLI1-mediated transcriptional activity assay, Western blot analysis and cytotoxicity test were as previously described. The GST–GLI1 protein was produced as previously described.
Background: Reporter assays use an easily measured gene product as a stand-in for the process of interest.

Data set [3] concerns C3H10T1/2. The data set is described as follows: Cytotoxicity test against C3H10T1/2 normal cells. It is filed as cell-based. To be noted: normal cell line.
Description: as §1

Data set [4] in a line: Cytotoxicity test against C3H10T1/2 normal cells. In kind it is cell-based. As to conditions: mouse, C3H10T1/2 cells (normal cell line).
Description: as §1

Data set [5] relates to PANC1. The data set is described as follows: Cytotoxicity test against PANC1. It is filed as cell-based. To be noted: Homo sapiens, PANC-1.
Description: as §1

Data set [6] has as its system GLI1 transcriptional activity. The data set is described as follows: cells. In kind it is cell-based. As to conditions: for IC50: read-out: GLI1 transcriptional inhibition, IC50.
Description: In addition, we evaluated the Hh inhibitory activity by assessing the cytotoxicity against cancer cells and the expression of Hh-related proteins.
as §2, §3

Data set [7] deals with PANC1. As to conditions: read-out: Cytotoxicity, IC50 PANC1; cited from earlier work.
For data set [8], the system named is C3H10T1/2. To be noted: cited from earlier work; for survival of C3H10T1/2 cells: normal cell line; for IC50: read-out: Cytotoxicity, IC50 C3H10T1/2, C3H10T1/2.
In data set [9] the target is T1, GLI1–DNA complex (GST–GLI1 171-515aa, GLI1–BS) (Homo sapiens, UniProt P08151).
T1 construct: GST–GLI1 (171-515aa); made in house; host or cells: Escherichia coli
T1 sequence (P08151 171-515): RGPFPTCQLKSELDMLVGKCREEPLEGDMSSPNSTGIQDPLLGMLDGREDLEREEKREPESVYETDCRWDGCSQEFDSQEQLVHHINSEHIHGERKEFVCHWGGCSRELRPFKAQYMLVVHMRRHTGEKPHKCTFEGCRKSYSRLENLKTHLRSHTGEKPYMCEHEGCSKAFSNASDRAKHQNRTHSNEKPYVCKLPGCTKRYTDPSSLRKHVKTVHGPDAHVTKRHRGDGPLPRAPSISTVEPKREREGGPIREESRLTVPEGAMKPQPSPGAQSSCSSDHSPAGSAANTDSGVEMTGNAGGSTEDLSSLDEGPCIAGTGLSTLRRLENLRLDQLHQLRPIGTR
In kind it is binding. As to conditions: EMSA, 200 μM. Background: Mobility shift assays separate free from complexed probe on a gel.

For data set [10], the system named is PTCH. Kind of data set: Western blot analysis of PTCH in DU145 cells. It is filed as cell-based, human. To be noted: 3.0 μM, DU145 cancer cells.
Description: as §1
(§4) Figure 4 Inhibition of protein expression by compound 1. (A) Western blot analysis of PTCH, BCL-2 protein levels in GLI1-overexpressing HaCaT cells after treatment with 1. (B) Western blot analysis of PTCH, BCL-2 protein levels in DU145 cells after treatment with 1.

Data set [11] concerns BCL2. Kind of data set: Western blot analysis of BCL2 in DU145 cells. In kind it is cell-based, human. As to conditions: 3.0 μM, DU145 cancer cells.
Description: as §1, §4

In data set [12] the test system is BCL2. Kind of data set: Western blot analysis of BCL2 in GLI1-overexpressing HaCaT cells. In kind it is cell-based. As to conditions: 3.0 μM, HaCaT cells expressing exogenous GLI1, Western blot.
Description: as §1, §4
Background: A western blot detects proteins with antibodies after separation by electrophoresis.

Data set [13] has as its system PTCH. The data set is described as follows: Western blot analysis of PTCH in GLI1-overexpressing HaCaT cells. In kind it is cell-based. To be noted: 3.0 μM, HaCaT cells expressing exogenous GLI1, Western blot.
Description: as §1, §4

Setting [14] is: Homo sapiens, DU-145; read-out: Cytotoxicity, IC50 DU145.
[15] abbreviates: read-out: GLI1 transcriptional inhibition, IC50.

With `C=C(C)[C@@H]1CC[C@]2(C(=O)O)CC[C@]3(C)[C@H](CC[C@@H]4[C@@]5(C)[C@H](C=O)[C@@H](O)C(C)(C)[C@@H]5CC[C@]43C)[C@@H]12` [colubrinic acid, reference compound], the IC50 in [1] (read-out: Hh inhibition IC50) is 38 µM.
For the molecule `CC12C(=O)CC=CC1=CCC1C2CCC2(O)C(=O)OC3(C)C4CC5(C)C(COC16OC23C5C6=O)C(=O)O4` (centres unmarked) [isophysalin B (4), isophysalin B], the IC50 in the data set on DU145 (setting [14]) was over 12 µM; in data set [4], over 12 µM; with PANC1 [5] it was 12 µM; in data set [6], 4.2 µM. Further, the “cytotoxicity against assay cells” value in data set [2] is “low cytotoxicity”. Further, the “survival of C3H10T1/2 cells” value with C3H10T1/2 [3] was “not significantly affected”.
As to `C[C@]12C(=O)C=CCC1=CC[C@@H]1[C@@H]2CC[C@@]2(O)C(=O)O[C@@]3(C)[C@H]4C[C@]5(C)[C@@H](CO[C@@]16O[C@]23[C@H]5C6=O)C(=O)O4` [physalin B (6), physalin B], the values for the IC50 (in the data set on PANC1 [7]; in data set [1] (setting [15]); in the data set on C3H10T1/2 [8]) were 5.3 µM, 0.62 µM and 17 µM, respectively. In the data set on C3H10T1/2 [8], the “survival of C3H10T1/2 cells” value is given as “not significantly affected”.
Turning to `C=C1C(=O)OC2CC1(C)C1C(=O)C3(O)OC14C(O)(CCC1C3CC=C3CC=CC(=O)C31C)C(=O)OC24C` (centres unmarked) [physalin B (6], the IC50 in data set [1] (setting [15]) was 0.62 µM.
On to `C[C@@]12C[C@H]3OC(=O)[C@@H]1CO[C@]14O[C@]5([C@H]2C1=O)[C@@](O)(CC[C@H]1[C@H]4C[C@H]2O[C@]24CC=CC(=O)[C@]14C)C(=O)O[C@@]35C` [physalin F (5), physalin F], for which the values for the IC50 (with PANC1 [7]; in data set [1] (setting [15]); in the data set with C3H10T1/2 [8]) were 2.7 µM, 0.66 µM and 15 µM, respectively. In the data set with C3H10T1/2 [8], the “survival of C3H10T1/2 cells” value is recorded as “not significantly affected”.
`CC12CC3OC(=O)C1COC14OC5(C2C1=O)C(O)(CCC1C4CC2OC24CC=CC(=O)C14C)C(=O)OC35C` (centres unmarked) [physalin F (5]: in [1] (setting [15]), the IC50 is 0.66 µM.
Take `C[C@]12C(=O)C=CC=C1[C@@H](O)C[C@@H]1[C@@H]2CC[C@@]2(O)C(=O)O[C@@]3(C)[C@H]4C[C@]5(C)[C@@H](CO[C@@]16O[C@]23[C@H]5C6=O)C(=O)O4` [physalin G (2), physalin G]: the IC50 with DU145 (Homo sapiens, DU-145, read-out: Cytotoxicity, IC50 DU145) is over 12 µM; in data set [6], 47.1 µM. Also, in [9], the “formation of GLI1–DNA complex” value was “did not inhibit”.
As for `CC12C(=O)C=CC=C1C(O)CC1C2CCC2(O)C(=O)OC3(C)C4CC5(C)C(COC16OC23C5C6=O)C(=O)O4` (centres unmarked) [physalin G (2], the IC50 in [6] turned out to be 47.1 µM.
Take `CC12CC3OC(=O)C1COC14OC5(C2C1=O)C(O)(CCC1C4CC(O)C2(Cl)CC=CC(=O)C12C)C(=O)OC35C` (centres unmarked) [physalin H (1), physalin H]: the “expression of PTCH” value with PTCH [10] is reported as “only slightly affected”; in the data set with PTCH [13] it was “inhibited the expression”. The IC50 was 6.8 µM in the data set with DU145 (setting [14]), over 6 µM in data set [4] and 5.7 µM in the data set on PANC1 [5]. Moreover, the “expression of BCL2” value in the data set on BCL2 [11] is “decreased the expression”; in the data set on BCL2 [12], “inhibited the expression”. For the same molecule, in the data set with C3H10T1/2 [3], the “survival of C3H10T1/2 cells” value is reported as “not significantly affected”.
Consider `CC12CC3OC(=O)C1COC14OC5(C2C1=O)C(O)(CCC1C4CC(O)C24C=CC(OO2)C(=O)C14C)C(=O)OC35C` (centres unmarked) [physalin K (3), physalin K], for which the Hh inhibition entry in [6] was “did not show Hh inhibition at all”.
With `COC(=O)[C@]1(C)CCC[C@]2(C)c3cc4occc4c(C)c3C[C@@H](OC(C)=O)[C@@H]12` [taepeenin D, reference compound], in data set [1] (read-out: Hh inhibition IC50), the IC50 was 1.6 µM.
As to `C=CC(C)(O)CC[C@@]1(C)C2=C([C@H](OC(C)=O)[C@H](OC(C)=O)[C@H]1C)C(C)(C)CCC2` (some centres unmarked) [vitetrifolin D, reference compound], in [1] (read-out: Hh inhibition IC50), the IC50 was 20.2 µM.
